Columns and labels:
[1] = test system: subjects with primary Sjögren's syndrome; experiment: Phase 2 trial, 12 weeks, four dosages of IFN lozenges versus CAM placebo; type: in vivo, human; settings: Phase 2, placebo (200 mg CAM) treated patients
Excerpt: (§1) The purposes of our investigations were to examine the safety and efficacy of four different dosages of IFN lozenges compared to placebo in subjects with primary Sjögren's syndrome over a 12-week period in a Phase 2 trial, and to examine the best dose from our Phase 2 trial in a 24-week Phase 3 trial. The primary endpoints of our Phase 2 and Phase 3 trials were measurements of unstimulated saliva and stimulated saliva and subjective assessments of dry mouth. The IFN-α was delivered to the patients in 200 mg lozenges consisting of crystalline anhydrous maltose (CAM). The placebo was 200 mg CAM without IFN in both (Phase 2 and Phase 3) clinical trials. […] The IFN-treated group did even better (73% and 81%, respectively), but the beneficial effect of CAM on UWS was striking. […] Not only will this benefit patients with Sjögren's syndrome, but CAM should benefit people with dry mouth from other causes.

[2] = test system: subjects with primary Sjögren's syndrome; experiment: Phase 3 trial, 24 weeks, IFN lozenges versus 200 mg CAM placebo lozenges; type: in vivo, human
Excerpt: as §1

[3] = test system: subjects with Sjögren's syndrome; settings: no sustained benefit in controlled clinical trials; cited from earlier work
[4] = test system: subjects with Sjögren's syndrome; settings: at 24 weeks, 30 subjects per group, p<0.001; cited from earlier work

Compound: OC[C@H]1O[C@H](O[C@H]2[C@H](O)[C@@H](O)[C@H](O)O[C@@H]2CO)[C@H](O)[C@@H](O)[C@@H]1O [CAM, crystalline anhydrous maltose]
- patients with an increase in UWS by 12 weeks [1]: 9 of 18
- overall result of lozenge administration ([2]; 200 mg maltose lozenges three times daily): Good results
- patients with an increase in unstimulated whole saliva (UWS) ([2]; Phase 3, after 6 months of daily treatment, 200 mg lozenges): 63.3%

Compound: CN(Cc1cc(Br)cc(Br)c1N)C1CCCCC1 [bromhexine]
- salivary output [3]: increase salivary output transiently

Compound: CC1OC2(CS1)CN1CCC2CC1 (stereo not shown) [cevimeline]
- salivary output [3]: increase salivary output transiently

Compound: CC[C@@H]1C(=O)OC[C@@H]1Cc1cncn1C [pilocarpine]
- salivary output [3]: increase salivary output transiently

Compound: sucralfate
- subjects with ≧100% increase from baseline in stimulated whole salivary flow [4]: 3%

Source: US6656920B2, “Composition and method for promoting oral health” (Amarillo Biosciences, Inc., priority 2000, dated 2003)
